Measured values published in patent US20260365692A1, “COMPOSITIONS COMPRISING PROTEINS DISSOLVED IN FLUORINATED SOLVENTS, AND METHODS OF MAKING AND USING THE SAME” (priority 2022, published 2026).

How the values were obtained:
[1] = system: seven model proteins (Hb, GFP, BSA, β-Gal, IgG, TFN, URE); assay: Fluorochemical-mediated dispersion of test proteins into perfluorohexane; assay type: physicochemical; details: into PFH, 1000:1 molar ratio with protein
Description: Only the rabbit IgG Fc fragment is shown.
For PFAS amphiphiles, the combination of polar head group and fluorophilic tail additionally leads to their preferential assembly at water-fluorous interfaces. Based on these unique properties, it was speculated that PFAS compounds may noncovalently associate with proteins to mediate their phase separation into fluorous media. To test this, a screening assay was developed to qualitatively investigate the binding affinity of a library of perfluorinated chemicals with seven model proteins, which include human hemoglobin (Hb), green fluorescent protein (GFP), bovine serum albumin (BSA), (β-Galactosidase (β-Gal), rabbit serum immunoglobulin (IgG), bovine apo-transferrin (TFN), and urease (URE). This group of model proteins captures an array of physicochemical properties ranging in molecular weight, solvent accessible surface area (SASA), isoelectric point (pI), and hydrodynamic radii. A corresponding perfluorinated small molecule test set was selected to contain a plurality of functional groups, linear perfluorocarbon chain lengths, and cyclic or aromatic geometries (FIGS. 1-7). Selection of these compounds was based on their potential to form noncovalent bonds (i.e., hydrogen or ionic) with the solvent exposed protein surfaces. […] These three linear PFAS chemicals are currently regulated by the US Environmental Protection Agency based on their reproductive, immune, and hepatic toxicity (References: 44-46). In sum, the structural and biochemical diversity represented in the protein and fluorochemical libraries was rationally selected to allow structure-function-performance relationships to be ascertained from binding studies.

β-Galactosidase (β-Gal) = details: into PFH, 1000:1 molar ratio with protein
Description: FIGS. 8A-8G depict fluorochemical-mediated dispersion of test proteins hemoglobin (Hb, FIG. 8A), green fluorescent protein (GFP, FIG. 8B), bovine serum albumin (BSA, FIG. 8C), β-Galactosidase (β-Gal, FIG. 8D), rabbit serum immunoglobulin G (IgG, FIG. 8E), bovine apo-transferrin (TFN, FIG. 8F), and urease (URE, FIG. 8G) into perfluorohexane. […] The compound ‘0’ indicates a control sample absent of an additive. The crystal structure of each protein candidate tested is shown in the inset of each of FIGS. 8A-8G. Only the rabbit IgG Fc fragment is shown.
To investigate PFAS-protein binding avidity, an assay was developed to measure the concentration of protein dispersed into perfluorohexane (PFH) in the presence of each fluorochemical compound (1000:1 molar ratio with protein). Protein dispersion into PFH served as a quantitative measure of PFAS-protein avidity, where the amount of dispersed protein was normalized to its initial concentration to evaluate binding interactions.

HepG2 cells = assay: HepG2 MTT viability assay (Example 2); assay type: cell-based, human; details: HepG2, 37 °C overnight
Procedure: FIG. 28 depicts a viability assay for HepG2 cells treated with two first generation compounds and two second generation compounds.
Next, viability assays were performed by seeding HepG2 (liver cancer cell line) onto 96 well plates and allowing the cells to adhere overnight. DMEM cell culture media containing various concentrations of each FTag compound were then added, and the plates were incubated at 37 °C overnight. The supernatant was then removed and MTT viability dyes were added to each well and allowed to convert for 2 hours. Dye absorbance for each condition was then compared to positive (20% DMSO) and negative (blank media) controls to calculate % viability (FIG. 28).

E. coli = assay: Bacterial contamination of BSA samples with E. coli; details: 37 °C overnight
Procedure: FIG. 24A: Diagram of contamination experiment. FIG. 24B: Samples in PBS (top) and PFOc (bottom) after contamination with E. coli.
To model bacterial contamination of samples a hypodermic needle was streaked across a lawn of plated E. coli (FIG. 24A). The contaminated needle was then dipped into PBS or PFOc (containing PFNA) samples with dispersed BSA protein to contaminate, and samples incubated at 37 °C overnight to allow for bacterial growth. An aliquot of the solution was then streaked onto LB-agar plates and incubated at 37 C overnight to allow for bacterial colony formation.

[2] = Temperature-dependent circular dichroism of proteins in PFOc or PBS (Example 4); assay type: physicochemical
Procedure: FIGS. 39A-39B depict temperature-dependent CD spectra of the indicated test protein solubilized in PFOc using the PD-7 dispersant, or PBS as a control.
FIG. 40 depicts the change in minimum CD ellipticity over the 40 °C-85 °C temperature interval for the indicated protein dissolved in either PBS or PFOc.
To determine structural integrity of proteins in aqueous and fluorinated environments at elevated temperatures, circular dichroism (CD) was used to probe secondary structure. Proteins were either diluted in PBS (aqueous) or dispersed in PFOc at the same designated concentrations according to protocol described above. For aqueous samples, dissolved proteins were heated between 40 °C to 90 °C, and their corresponding CD spectra at each temperature was measured. For PFOc samples, each of the PFOc dispersed proteins were subjected to heat treatment at 40, 55, 70, and 85 °C for 15 minutes. After that, dispersed proteins were eluted into PBS before having their CD spectra taken. Data is shown by representative ellipticity at each temperature depicted by distinct colors.

[3] = system: E. coli, P. aeruginosa, K. pneumoniae, Methicillin-resistant S. aureus (MRSA), C. albicans; assay: Contamination of BSA formulations by bacterial and fungal pathogens
Description: FIG. 53 depicts representative photographs of agar plates streaked with BSA formulations in PBS (top panel) or PFOc (lower panel) contaminated with the indicated pathogen. MRSA=methicillin resistant Staphylococcus aureus.
Evaluating PFOc Protein Formulation Resilience Against Contaminants Aqueous protein formulations can be compromised by contaminating pathogens, or the biologic inactivated by exposure to environmental disinfectants and acids. In the context of bacterial and fungal contamination, it was hypothesized that removal of the water solvent required for microorganismal survival should make the PFOc protein formulations intrinsically sterile. A hypodermic needle was streaked across a lawn of the human bacterial pathogens E. coli, P. aeruginosa, K. pneumoniae or Methicillin-resistant S. aureus (MRSA), as well as the human fungal pathogen C. albicans prepared on agar. The contaminated needle was then submerged into BSA protein formulations prepared in either PBS or PFOc solvents. Contaminated liquid formulations were incubated at 37 °C overnight and replated onto agar plates to assess growth.

[4] = Thermal stability of proteins in PFNA/PFOc (bioactivity after heating); assay type: physicochemical; details: PFNA/PFOc mixture compared to aqueous solution, 30 min heating
Procedure: FIGS. 16A-16C depict that the thermal stability of β-gal, GFP, and Trypsin is enhanced when the proteins are dissolved in a PFNA/PFOc mixture, compared to aqueous solutions of the proteins.
PFNA enhanced thermal stability in PFOc Differential scanning calorimetry (DSC) measurements were performed on 5 test proteins dissolved in either PBS (Aq.) or Perfluorooctane (PFOc). PFNA dispersant was added only for the PFOc conditions. DSC was performed at 2 °C/min ramp from 40 °C-100 °C. Melting temperature (Tm) was determined based on positive inflection of heat capacity curve, indicating protein unfolding (FIG. 15). Change in melting temperature (ATm (°C)) represented the difference in Tm between aqueous (Aq.) and PFOc data. Tm for GFP in PFOc could not be achieved at the maximum temperature of 100 °C for the DSC experiments. Each protein was dissolved in PBS (Aq.) or PFNA/PFOc mixture. Dissolved proteins were heated to 75 °C (β-gal), 90 °C (GFP) or 80 °C (Trypsin); treatment temperatures were determined based on aqueous melting temperatures for each protein. Positive controls were maintained at room temperature (25 °C). […] Bioactivity was evaluated then via fluorescence measurements for GFP, or using colorimetric substrate conversion assays (ONPG for β-gal, BAEE for Trypsin). […]

[5] = Protein activity after elevated temperature exposure (Example 4); assay type: physicochemical; details: 90 °C for 30 minutes
Procedure: A group of enzyme proteins, β-Gal and Trypsin was chosen for this study. β-Gal and Trypsin were diluted in PBS or dispersed in PFOc at 1 μM and 10 μM, respectively. Next, a subset of samples was subjected to elevated temperature condition (90 °C) well beyond their native denaturation temperature for 30 minutes. After that, samples were allowed to cool down to room temperature before retrieval. For PFOc samples, proteins were extracted into PBS before performing the ensuing assays. To determine the enzymatic activity, an equal volume of protein samples was added to their substrates dissolved in PBS (4 mg/mL ONPG for β-Gal or 1 mg/mL BAEE for Trypsin). After incubation, ONPG and BAEE substrate conversions were measured by taking absorbance using a microplate reader at 420 nm or 400 nm, respectively. In case of intrinsic fluorescence, GFP was similarly prepared, and heat treated. After GFP samples were retrieved, fluorescent intensity was taken at λex=490 nm, λem=520 nm. The change in protein activity was presented by normalizing to spectrometric readings of each protein dissolved in PBS without being subjected to heat (room temperature). […] This supports the assertion that the fluorous coating and solvent environments, together, serve to constrain the conformational flexibility of the dispersed protein and, as a result, increase its melting temperature.

[6] = dispersed in PFOc using PD-7, heated up to 85 °C

With O=S(=O)(O)C(F)(F)C(F)(F)C(F)(F)C(F)(F)C(F)(F)C(F)(F)C(F)(F)C(F)(F)F [Compound 17, perfluorooctanesulfonic acid] the “capacity to disperse proteins into PFH / association with proteins (in words)” value [1] was “capacity to disperse many of the protein candidates into PFH”.

In the case of O=C(O)C(F)(F)C(F)(F)C(F)(F)C(F)(F)C(F)(F)C(F)(F)C(F)(F)C(F)(F)C(F)(F)C(F)(F)C(F)(F)F [Compound 10, perfluorododecanoic acid], the “dispersion efficiency of β-Gal (in words)” value (β-Galactosidase (β-Gal)) is reported as “stepwise increase in dispersion efficiency”.

“2,2-(1,1,1,2,2,3,3,4,4,5,5,6,6-tridecafluorooctane)-2-cyanoacetic acid [Compound 21]” showed an IC50 (HepG2 cells) of 610 µM.

In the case of O=C(O)C1(F)C(F)(F)C(F)(F)C(F)(F)C(F)(F)C1(F)F [Compound 13, perfluorocyclohexanecarboxylic acid], the “capacity to disperse proteins into PFH / association with proteins (in words)” value [1] is reported as “capacity to disperse many of the protein candidates into PFH”.

With O=C(O)C(F)(F)C(F)(F)C(F)(F)C(F)(F)C(F)(F)C(F)(F)C(F)(F)C(F)(F)C(F)(F)F [Compound 8, perfluorodecanoic acid] the “capacity to disperse proteins into PFH / association with proteins (in words)” value [1] was “significantly compromised its association with most proteins”.

For O=C(O)C(F)(F)C(F)(F)C(F)(F)C(F)(F)C(F)(F)C(F)(F)C(F)(F)C(F)(F)C(F)(F)C(F)(F)C(F)(F)C(F)(F)C(F)(F)F [Compound 11, perfluorotetradecanoic acid], the “dispersion efficiency of β-Gal (in words)” value (β-Galactosidase (β-Gal)) was “sharp drop off in dispersion efficiency”.

For O=C(O)C(F)(F)C(F)(F)C(F)(F)C(F)(F)C(F)(F)C(F)(F)C(F)(F)F [Compound 6, perfluorooctanoic acid], the “capacity to disperse proteins into PFH / association with proteins (in words)” value [1] was “significantly compromised its association with most proteins”.

With NCC(F)(F)C(F)(F)C(F)(F)C(F)(F)C(F)(F)C(F)(F)C(F)(F)C(F)(F)F [Compound 20, 1H,1H-perfluorononylamine] the “capacity to disperse proteins into PFH / association with proteins (in words)” value [1] was “capacity to disperse many of the protein candidates into PFH”.

In the case of BSA: bovine serum albumin (BSA), the “E. coli colony growth after contamination” value (E. coli; BSA in PBS) is reported as “Visible E. coli colony growth”, the sterility after contamination (E. coli; BSA in PFOc (containing PFNA)) is reported as “remained sterile” and the “change in secondary structure” value [2, 6] is reported as “minimal changes in secondary structure”. For the same molecule, the contamination ([3]; BSA in PBS) was “readily contaminated by all five pathogens” and the sterility after contamination ([3]; BSA in PFOc) was “remained sterile”.

B1: Trypsin: bovine trypsin (protein, UniProt P00760 24-246, looked up)
Serine protease 1: IVGGYTCGANTVPYQVSLNSGYHFCGGSLINSQWVVSAAHCYKSGIQVRLGEDNINVVEGNEQFISASKSIVHPSYNSNTLNNDIMLIKLKSAASLNSRVASISLPTSCASAGTQCLISGWGNTKSSGTSYPDVLKCLKAPILSDSSCKSAYPGQITSNMFCAGYLEGGKDSCQGDSGGPVVCSGKLQGIVSWGSGCAQKNKPGVYTKVCNYVSWIKQTIASN
With B1 the thermal stability [4] was “enhanced”, the “change in secondary structure” value [2, 6] was “minimal changes in secondary structure” and the “change in secondary structure” value ([2]; saline (PBS) control, 40-85 °C) was “minimal change in structure”. The “change in activity after heating” value ([5]; PFOc dispersed) was “no statistically significant change in activity” and the “loss of bioactivity after heating” value ([5]; saline) was > 90%.
